Results taken from patent US20050282743A1, “Molecular interactions in cells” (Arbor Vita Corporation, priority 2001, published 2005).
Peptide text beside a SMILES is read from it. * marks the point of attachment. Biotin = O=C1N[C@H]2[C@H](CS[C@H]2CCCCC(=O)*)N1

Tests used:
Assay in all cases: G' assay (10 uM PL peptide), results of TABLE 7 and TABLE 12
Type in all cases: binding
[1] = molecular target: T1, PDZ protein (GST-PDZ fusion) (Homo sapiens, UniProt Q14160)
T1 construct: made in house; host or cells: E. coli (DH5alpha, BL21 or JM109)
T1 sequence (Q14160 whole entry, the tested form may be a part): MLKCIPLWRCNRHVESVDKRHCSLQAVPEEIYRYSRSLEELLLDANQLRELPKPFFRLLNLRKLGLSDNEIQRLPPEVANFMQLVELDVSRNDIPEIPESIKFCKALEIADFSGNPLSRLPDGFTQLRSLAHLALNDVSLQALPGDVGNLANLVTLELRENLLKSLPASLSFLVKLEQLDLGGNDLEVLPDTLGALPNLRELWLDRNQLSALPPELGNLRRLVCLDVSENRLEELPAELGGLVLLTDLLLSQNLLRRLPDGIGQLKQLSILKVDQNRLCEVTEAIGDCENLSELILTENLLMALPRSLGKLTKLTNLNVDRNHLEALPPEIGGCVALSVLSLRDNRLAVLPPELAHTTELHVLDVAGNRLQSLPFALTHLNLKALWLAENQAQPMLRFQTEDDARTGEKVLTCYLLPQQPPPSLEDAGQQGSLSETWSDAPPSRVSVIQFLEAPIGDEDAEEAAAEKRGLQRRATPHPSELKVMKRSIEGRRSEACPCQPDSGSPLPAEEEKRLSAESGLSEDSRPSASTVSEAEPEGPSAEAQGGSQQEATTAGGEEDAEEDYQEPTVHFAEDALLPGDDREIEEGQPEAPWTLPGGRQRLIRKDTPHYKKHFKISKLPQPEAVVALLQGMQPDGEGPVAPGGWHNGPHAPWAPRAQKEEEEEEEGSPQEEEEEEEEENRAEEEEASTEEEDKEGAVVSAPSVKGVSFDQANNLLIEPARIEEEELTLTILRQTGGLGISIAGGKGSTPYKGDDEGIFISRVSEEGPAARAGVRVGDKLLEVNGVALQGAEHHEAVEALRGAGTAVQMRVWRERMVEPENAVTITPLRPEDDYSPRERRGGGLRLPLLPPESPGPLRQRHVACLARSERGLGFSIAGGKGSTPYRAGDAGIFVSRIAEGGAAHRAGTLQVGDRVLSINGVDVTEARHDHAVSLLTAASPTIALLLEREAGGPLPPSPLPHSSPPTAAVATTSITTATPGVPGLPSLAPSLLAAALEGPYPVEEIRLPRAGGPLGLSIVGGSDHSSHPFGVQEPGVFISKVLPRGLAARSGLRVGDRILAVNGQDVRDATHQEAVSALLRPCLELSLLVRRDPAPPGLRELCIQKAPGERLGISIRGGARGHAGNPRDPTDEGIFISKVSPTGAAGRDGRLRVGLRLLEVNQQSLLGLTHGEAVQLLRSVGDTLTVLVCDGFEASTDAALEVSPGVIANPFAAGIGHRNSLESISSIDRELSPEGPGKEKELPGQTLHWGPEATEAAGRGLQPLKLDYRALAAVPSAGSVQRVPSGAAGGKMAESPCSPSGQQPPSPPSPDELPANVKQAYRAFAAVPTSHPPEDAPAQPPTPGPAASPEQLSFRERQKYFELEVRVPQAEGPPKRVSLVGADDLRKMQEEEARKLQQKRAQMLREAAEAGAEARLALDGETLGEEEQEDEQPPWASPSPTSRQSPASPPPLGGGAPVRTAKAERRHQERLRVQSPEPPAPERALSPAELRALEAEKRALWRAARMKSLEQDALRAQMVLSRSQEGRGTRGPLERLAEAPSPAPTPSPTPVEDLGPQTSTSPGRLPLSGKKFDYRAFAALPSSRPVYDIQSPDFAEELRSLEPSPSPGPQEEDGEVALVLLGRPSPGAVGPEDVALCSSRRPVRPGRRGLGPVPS
Summary of the method: (§1)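 Same steps as the G-zero format, apart from a peptide concentration of 10 uM in place of 20 uM in step 2. Amino-terminally biotinylated PL peptides bind GST-PDZ fusions, and retained peptide is quantified by 450 nm absorbance.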

[2] = molecular target: T2, PDZ protein (GST-PDZ fusion) (Homo sapiens, UniProt O14907); details: PDZ TIP1, PDZ Domain 1
T2 construct: made in house; host or cells: E. coli (DH5alpha, BL21 or JM109)
T2 sequence (O14907 1-124): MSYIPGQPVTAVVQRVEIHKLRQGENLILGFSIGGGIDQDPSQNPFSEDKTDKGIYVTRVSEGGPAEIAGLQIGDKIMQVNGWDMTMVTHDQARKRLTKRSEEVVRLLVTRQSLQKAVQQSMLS
Summary of the method: as §1

[3] = molecular target: T3, PDZ protein (GST-PDZ fusion) (Homo sapiens, UniProt Q15700)
T3 construct: made in house; host or cells: E. coli (DH5alpha, BL21 or JM109)
T3 sequence (Q15700 whole entry, the tested form may be a part): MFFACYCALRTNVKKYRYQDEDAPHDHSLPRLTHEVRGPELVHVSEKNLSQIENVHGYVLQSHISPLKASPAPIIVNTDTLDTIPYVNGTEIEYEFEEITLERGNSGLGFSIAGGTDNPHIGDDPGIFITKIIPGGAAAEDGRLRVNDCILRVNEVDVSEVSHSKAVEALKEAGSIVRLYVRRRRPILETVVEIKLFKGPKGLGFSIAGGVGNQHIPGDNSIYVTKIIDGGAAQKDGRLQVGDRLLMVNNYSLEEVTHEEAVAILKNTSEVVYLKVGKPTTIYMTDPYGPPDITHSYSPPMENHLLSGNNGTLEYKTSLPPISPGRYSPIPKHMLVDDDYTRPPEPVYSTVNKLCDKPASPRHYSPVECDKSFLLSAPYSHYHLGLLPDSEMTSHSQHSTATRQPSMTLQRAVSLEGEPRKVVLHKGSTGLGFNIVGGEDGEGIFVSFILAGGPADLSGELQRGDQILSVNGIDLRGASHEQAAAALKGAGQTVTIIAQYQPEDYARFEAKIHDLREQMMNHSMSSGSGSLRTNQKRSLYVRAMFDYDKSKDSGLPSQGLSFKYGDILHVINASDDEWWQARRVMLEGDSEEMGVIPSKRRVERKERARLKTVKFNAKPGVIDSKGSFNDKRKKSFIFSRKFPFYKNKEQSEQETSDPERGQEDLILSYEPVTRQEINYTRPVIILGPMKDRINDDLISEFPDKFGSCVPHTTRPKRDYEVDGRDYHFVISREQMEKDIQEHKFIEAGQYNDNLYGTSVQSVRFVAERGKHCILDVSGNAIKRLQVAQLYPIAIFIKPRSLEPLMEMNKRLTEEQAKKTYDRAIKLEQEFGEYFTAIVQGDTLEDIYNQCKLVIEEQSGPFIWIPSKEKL
Summary of the method: as §1

[4] = molecular target: T4, PDZ protein (GST-PDZ fusion) (Homo sapiens, UniProt O15018); details: PDZ AIPC, PDZ Domain 1; PL peptide 10 uM; Protein Optimal Conc 5
T4 construct: made in house; host or cells: E. coli (DH5alpha, BL21 or JM109)
Summary of the method: as §1

[5] = molecular target: T5, PDZ protein (GST-PDZ fusion) (Homo sapiens, UniProt Q9P202); details: PDZ KIAA1526, PDZ Domain 1
T5 construct: made in house; host or cells: E. coli (DH5alpha, BL21 or JM109)
T5 sequence (Q9P202 1-907): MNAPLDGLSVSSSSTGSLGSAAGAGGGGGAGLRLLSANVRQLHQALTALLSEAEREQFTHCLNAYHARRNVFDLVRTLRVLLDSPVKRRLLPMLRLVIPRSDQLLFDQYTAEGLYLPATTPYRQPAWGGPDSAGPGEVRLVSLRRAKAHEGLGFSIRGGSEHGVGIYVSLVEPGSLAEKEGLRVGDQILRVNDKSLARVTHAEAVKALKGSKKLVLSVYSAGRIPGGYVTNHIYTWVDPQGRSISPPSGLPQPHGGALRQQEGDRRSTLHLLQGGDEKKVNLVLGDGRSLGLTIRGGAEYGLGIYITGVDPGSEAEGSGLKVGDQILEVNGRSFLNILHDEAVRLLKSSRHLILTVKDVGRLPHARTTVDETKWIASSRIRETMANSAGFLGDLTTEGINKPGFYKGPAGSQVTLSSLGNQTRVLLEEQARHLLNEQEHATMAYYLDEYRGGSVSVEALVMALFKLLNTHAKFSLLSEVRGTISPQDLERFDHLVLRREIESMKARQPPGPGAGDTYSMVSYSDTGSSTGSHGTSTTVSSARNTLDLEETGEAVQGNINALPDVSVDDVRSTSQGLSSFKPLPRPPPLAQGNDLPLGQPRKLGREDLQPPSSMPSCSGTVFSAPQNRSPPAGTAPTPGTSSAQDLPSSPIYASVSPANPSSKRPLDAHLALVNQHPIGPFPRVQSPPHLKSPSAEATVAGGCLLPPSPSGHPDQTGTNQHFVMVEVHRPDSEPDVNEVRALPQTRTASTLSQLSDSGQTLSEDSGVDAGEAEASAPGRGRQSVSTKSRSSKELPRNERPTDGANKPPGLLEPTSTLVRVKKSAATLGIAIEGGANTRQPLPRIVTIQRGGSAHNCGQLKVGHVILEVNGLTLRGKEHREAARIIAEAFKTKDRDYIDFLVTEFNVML
Summary of the method: as §1

[6] = molecular target: T6, PDZ protein (GST-PDZ fusion) (Homo sapiens, UniProt Q12959)
T6 construct: made in house; host or cells: E. coli (DH5alpha, BL21 or JM109)
T6 sequence (Q12959 whole entry, the tested form may be a part): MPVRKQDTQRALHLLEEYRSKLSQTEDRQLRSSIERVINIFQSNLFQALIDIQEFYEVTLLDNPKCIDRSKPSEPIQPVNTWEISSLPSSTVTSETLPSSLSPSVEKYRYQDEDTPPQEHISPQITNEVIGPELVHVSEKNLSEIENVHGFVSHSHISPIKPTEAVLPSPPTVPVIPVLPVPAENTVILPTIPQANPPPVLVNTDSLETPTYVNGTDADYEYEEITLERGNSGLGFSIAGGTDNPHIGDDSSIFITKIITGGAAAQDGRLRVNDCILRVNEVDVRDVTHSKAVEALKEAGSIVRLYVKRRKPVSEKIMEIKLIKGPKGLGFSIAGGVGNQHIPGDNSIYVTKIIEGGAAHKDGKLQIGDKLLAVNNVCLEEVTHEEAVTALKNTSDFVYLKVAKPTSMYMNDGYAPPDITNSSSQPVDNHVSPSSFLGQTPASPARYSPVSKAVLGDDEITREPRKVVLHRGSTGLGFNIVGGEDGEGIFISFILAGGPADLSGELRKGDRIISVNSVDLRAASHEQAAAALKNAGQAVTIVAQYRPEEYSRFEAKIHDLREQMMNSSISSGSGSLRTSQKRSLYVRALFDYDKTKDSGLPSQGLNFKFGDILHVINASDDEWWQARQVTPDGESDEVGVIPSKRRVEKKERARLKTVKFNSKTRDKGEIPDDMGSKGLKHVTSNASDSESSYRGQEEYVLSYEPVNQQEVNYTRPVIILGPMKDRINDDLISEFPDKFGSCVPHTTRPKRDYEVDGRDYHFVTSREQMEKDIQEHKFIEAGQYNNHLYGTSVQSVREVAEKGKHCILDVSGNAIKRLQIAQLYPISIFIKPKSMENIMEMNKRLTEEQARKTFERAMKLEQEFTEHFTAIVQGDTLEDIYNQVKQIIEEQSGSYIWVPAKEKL
Summary of the method: as §1

[7] = molecular target: T7, PDZ protein (GST-PDZ fusion) (Homo sapiens, UniProt P57105); details: PDZ Outer Membrane, PDZ Domain 1
T7 construct: made in house; host or cells: E. coli (DH5alpha, BL21 or JM109)
T7 sequence (P57105 1-145): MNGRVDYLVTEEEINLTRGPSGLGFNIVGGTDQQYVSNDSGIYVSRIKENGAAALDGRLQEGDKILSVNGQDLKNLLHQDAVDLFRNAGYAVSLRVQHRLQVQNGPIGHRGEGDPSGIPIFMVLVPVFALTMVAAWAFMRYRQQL
Summary of the method: as §1

[8] = molecular target: T8, PDZ protein (GST-PDZ fusion) (Homo sapiens, UniProt P78352)
T8 construct: made in house; host or cells: E. coli (DH5alpha, BL21 or JM109)
T8 sequence (P78352 whole entry, the tested form may be a part): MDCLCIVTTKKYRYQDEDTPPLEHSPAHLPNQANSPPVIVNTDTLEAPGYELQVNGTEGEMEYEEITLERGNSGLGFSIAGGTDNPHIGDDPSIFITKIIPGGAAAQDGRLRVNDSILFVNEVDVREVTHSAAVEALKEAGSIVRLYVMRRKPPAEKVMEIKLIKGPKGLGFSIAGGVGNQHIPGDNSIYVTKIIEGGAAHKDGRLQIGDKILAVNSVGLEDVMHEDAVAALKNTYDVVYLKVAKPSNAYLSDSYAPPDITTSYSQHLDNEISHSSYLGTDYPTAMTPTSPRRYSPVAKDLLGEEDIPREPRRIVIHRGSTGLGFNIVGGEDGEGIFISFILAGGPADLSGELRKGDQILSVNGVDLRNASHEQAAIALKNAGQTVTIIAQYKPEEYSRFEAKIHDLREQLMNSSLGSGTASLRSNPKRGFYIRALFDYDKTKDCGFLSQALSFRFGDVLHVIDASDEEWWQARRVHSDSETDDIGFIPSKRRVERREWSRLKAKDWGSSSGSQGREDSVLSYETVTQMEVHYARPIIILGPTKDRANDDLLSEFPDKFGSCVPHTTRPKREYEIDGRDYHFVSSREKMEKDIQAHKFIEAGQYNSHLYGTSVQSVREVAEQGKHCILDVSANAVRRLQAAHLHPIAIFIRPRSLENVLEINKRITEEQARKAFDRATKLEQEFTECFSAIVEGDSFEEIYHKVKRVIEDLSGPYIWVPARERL
Summary of the method: as §1

`CSCC[C@H](NC(=O)[C@H](C)NC(=O)[C@H](CCCNC(=N)N)NC(=O)CNC(=O)[C@@H](NC(=O)[C@H](Cc1c[nH]c2ccccc12)NC(=O)[C@H](CCCNC(=N)N)NC(=O)CNC(=O)CCCC[C@@H]1SC[C@@H]2NC(=O)N[C@@H]21)[C@@H](C)O)C(=O)N[C@@H](CO)C(=O)N[C@@H](C)C(=O)N[C@@H](Cc1c[nH]c2ccccc12)C(=O)N[C@@H](CCCCN)C(=O)N1CCC[C@H]1C(=O)N[C@H](C(=O)N[C@@H](CCCNC(=N)N)C(=O)N[C@@H](CCCNC(=N)N)C(=O)N[C@@H](CCC(=O)O)C(=O)N[C@H](C(=O)N[C@@H](CCC(=O)O)C(=O)N[C@H](C(=O)O)C(C)C)[C@@H](C)O)[C@@H](C)O` [HPV E6 #35 (modified)] (Biotin-GRWTGRAMSAWKPTRRETEV-OH; C-terminus assumed) was tested, and the Classification ([1]; PDZ KIAA0147, PDZ Domain 1) was 5 (A450 nm of 4 more than 2× repeated), the Classification ([1]; PDZ KIAA0147, PDZ Domain 2) was 5 (A450 nm of 4 more than 2× repeated) and the Classification ([1]; PDZ KIAA0147, PDZ Domain 3) was 4 (A450 nm 3-4). The Classification ([1]; PDZ KIAA0147, PDZ Domain 4) was 1 (A450 nm 0-1), the Classification [2] was 5 (A450 nm of 4 more than 2× repeated) and the Classification ([3]; PDZ DLG2, PDZ Domain 1) was 5 (A450 nm of 4 more than 2× repeated). For the same molecule, the Classification ([3]; PDZ DLG2, PDZ Domain 2) was 5 (A450 nm of 4 more than 2× repeated), the Classification [4] was 1 (A450 nm 0-1) and the Classification [5] was 3 (A450 nm 2-3). For the same molecule, the Classification ([6]; PDZ DLG1, PDZ Domain 1) was 5 (A450 nm of 4 more than 2× repeated), the Classification ([6]; PDZ DLG1, PDZ Domain 1, 2) was 5 (A450 nm of 4 more than 2× repeated) and the Classification ([6]; PDZ DLG1, PDZ Domain 2) was 5 (A450 nm of 4 more than 2× repeated). For the same molecule, the Classification ([6]; PDZ DLG1, PDZ Domain 3) was 3 (A450 nm 2-3), the Classification [7] was 5 (A450 nm of 4 more than 2× repeated) and the Classification ([8]; PDZ PSD95, PDZ Domain 1) was 5 (A450 nm of 4 more than 2× repeated). For the same molecule, the Classification ([8]; PDZ PSD95, PDZ Domain 1, 2, 3) was 5 (A450 nm of 4 more than 2× repeated) and the Classification ([8]; PDZ PSD95, PDZ Domain 3) was 5 (A450 nm of 4 more than 2× repeated).
